Experimental data as given in the NIST ThermoML archive (doi:10.1021/je034290l).

Key:
[1] = Liquid; for mass density: 101.33 kPa
[2] = refractive index (Na D-line) (dimensionless); conditions: 101.33 kPa, Liquid, Standard Abbe refractometry

COC=O [methyl methanoate]
Conditions	mass density [kg/m3]	refractive index	vapor or sublimation pressure [kPa]
[1], 299.15 K	964.78	–	–
[1], 301.23 K	–	–	88.7
[1], 301.42 K	–	–	89.37
[1], 301.78 K	–	–	90.67
[1], 302.15 K	–	–	91.98
[1], 302.53 K	–	–	93.31
[1], 302.89 K	–	–	94.64
[1], 303.41 K	–	–	95.98
[1], 303.77 K	–	–	97.36
[1], 304.13 K	–	–	98.69
[1], 304.44 K	–	–	99.97
[1], 304.79 K	–	–	101.32
[1], 304.83 K	–	–	101.39
[1], 305.21 K	–	–	102.89
[1], 305.51 K	–	–	104.06
[1], 305.85 K	–	–	105.38
[1], 306.2 K	–	–	106.72
[1], 306.54 K	–	–	108.06
[1], 306.84 K	–	–	109.39
[1], 307.2 K	–	–	110.77
[1], 307.54 K	–	–	112.13
[1], 307.85 K	–	–	113.44
[1], 308.13 K	–	–	114.75
[1], 308.47 K	–	–	116.1
[1], 308.81 K	–	–	117.47
[1], 309.15 K	–	–	118.77
[1], 309.43 K	–	–	120.12
[1], 309.72 K	–	–	121.43
[1], 310.03 K	–	–	122.74
[1], 310.33 K	–	–	124.08
[1], 310.64 K	–	–	125.47
[1], 310.92 K	–	–	126.77
[1], 311.19 K	–	–	128.14
[1], 311.48 K	–	–	129.44
[1], 311.78 K	–	–	130.75
[1], 312.06 K	–	–	132.09
[1], 312.37 K	–	–	133.48
[1], 312.67 K	–	–	134.81
[1], 312.9 K	–	–	136.09
[1], 313.17 K	–	–	137.42
[1], 313.45 K	–	–	138.75
[1], 313.74 K	–	–	139.83
[1], 314.01 K	–	–	141.42
[1], 314.3 K	–	–	142.78
[1], 314.37 K	–	–	143.32
[1], 314.6 K	–	–	144.13
[1], 314.63 K	–	–	144.65
[1], 314.88 K	–	–	145.45
[1], 314.93 K	–	–	145.65
[1], 315.12 K	–	–	146.74
[1], 315.18 K	–	–	147.03
[1], 315.52 K	–	–	148.79
[1], 315.56 K	–	–	149.41
[1], 315.77 K	–	–	150.23
[1], 316 K	–	–	151.48
[1], 316.06 K	–	–	152.08
[1], 316.23 K	–	–	152.97
[1], 316.47 K	–	–	154.04
[1], 316.57 K	–	–	154.75
[1], 316.71 K	–	–	155.22
[1], 316.95 K	–	–	156.54
[1], 317.05 K	–	–	157.42
[1], 317.17 K	–	–	157.73
[1], 317.36 K	–	–	158.92
[1], 317.4 K	–	–	159.14
[1], 317.64 K	–	–	160.45
[1], 317.88 K	–	–	161.72
[1], 318 K	–	–	162.65
[1], 318.34 K	–	–	164.18
[1], 318.51 K	–	–	165.32
[1], 318.68 K	–	–	166.44
[1], 319.07 K	–	–	168.3
[1], 319.37 K	–	–	170
[1], 319.45 K	–	–	170.76
[1], 319.67 K	–	–	171.98
[1], 319.93 K	–	–	173.32
[1], 320.22 K	–	–	174.76
[1], 320.34 K	–	–	175.82
[1], 320.65 K	–	–	177.38
[1], 320.78 K	–	–	178.57
[1], 321.04 K	–	–	180.01
[1], 321.34 K	–	–	181.7
[1], 321.46 K	–	–	182.37
[1], 321.72 K	–	–	184.02
[1], 321.94 K	–	–	185.46
[1], 322.2 K	–	–	186.83
[2], 299.15 K	–	1.3402	–

COC(C)=O [methyl ethanoate]
Conditions	mass density [kg/m3]	refractive index	vapor or sublimation pressure [kPa]
[1], 305.21 K	–	–	39.85
[1], 305.85 K	–	–	41.28
[1], 306.84 K	–	–	42.46
[1], 307.84 K	–	–	44.04
[1], 308.13 K	–	–	45.37
[1], 308.75 K	–	–	46.97
[1], 309.72 K	–	–	48.14
[1], 310.17 K	–	–	49.41
[1], 311.19 K	–	–	50.42
[1], 311.59 K	–	–	51.81
[1], 312.76 K	–	–	53.53
[1], 313.38 K	–	–	54.58
[1], 313.74 K	–	–	55.9
[1], 314.18 K	–	–	57.49
[1], 314.88 K	–	–	58.59
[1], 315.56 K	–	–	60.05
[1], 316.06 K	–	–	61.43
[1], 316.57 K	–	–	62.5
[1], 317.05 K	–	–	63.9
[1], 318.15 K	900.19	–	–
[1], 318.34 K	–	–	66.51
[1], 318.69 K	–	–	67.81
[1], 319.37 K	–	–	69.23
[1], 319.93 K	–	–	70.45
[1], 320.11 K	–	–	71.01
[1], 320.34 K	–	–	71.9
[1], 320.65 K	–	–	73.35
[1], 321.34 K	–	–	74.58
[1], 321.46 K	–	–	75.27
[1], 321.72 K	–	–	76.13
[1], 322.07 K	–	–	77.22
[1], 322.36 K	–	–	77.87
[1], 322.62 K	–	–	78.83
[1], 323.07 K	–	–	80.15
[1], 323.49 K	–	–	81.23
[1], 324.29 K	–	–	82.59
[1], 324.58 K	–	–	83.84
[1], 324.95 K	–	–	85.23
[1], 325.33 K	–	–	86.76
[1], 325.71 K	–	–	87.86
[1], 326.25 K	–	–	89.23
[1], 326.63 K	–	–	90.98
[1], 327.08 K	–	–	92.06
[1], 327.54 K	–	–	93.46
[1], 328 K	–	–	94.82
[1], 328.17 K	–	–	96.1
[1], 328.96 K	–	–	97.67
[1], 329.38 K	–	–	99.14
[1], 329.55 K	–	–	100.18
[1], 329.86 K	–	–	101.32
[1], 330.09 K	–	–	102.6
[1], 330.43 K	–	–	104.14
[1], 330.97 K	–	–	105.19
[1], 331.43 K	–	–	106.75
[1], 331.76 K	–	–	107.92
[1], 332.06 K	–	–	109.42
[1], 332.52 K	–	–	110.71
[1], 332.77 K	–	–	112.16
[1], 333.1 K	–	–	113.39
[1], 333.6 K	–	–	114.47
[1], 333.94 K	–	–	115.87
[1], 334.06 K	–	–	117.43
[1], 334.27 K	–	–	118.52
[1], 334.73 K	–	–	120.12
[1], 335.06 K	–	–	121.46
[1], 335.23 K	–	–	122.57
[1], 335.73 K	–	–	123.95
[1], 336.07 K	–	–	125.35
[1], 336.48 K	–	–	126.88
[1], 336.86 K	–	–	127.85
[1], 337.19 K	–	–	129.37
[1], 337.53 K	–	–	130.87
[1], 337.78 K	–	–	131.93
[1], 337.9 K	–	–	133.48
[1], 338.15 K	–	–	134.72
[1], 338.66 K	–	–	136.16
[1], 338.82 K	–	–	137.37
[1], 339.07 K	–	–	138.56
[1], 339.41 K	–	–	140.07
[1], 339.66 K	–	–	141.45
[1], 339.95 K	–	–	142.53
[1], 340.33 K	–	–	144.04
[1], 340.49 K	–	–	145.51
[1], 340.95 K	–	–	146.43
[1], 341.08 K	–	–	147.88
[1], 341.45 K	–	–	149.13
[1], 341.79 K	–	–	150.58
[1], 342 K	–	–	151.93
[1], 342.37 K	–	–	153.34
[1], 342.46 K	–	–	154.61
[1], 342.85 K	–	–	155.92
[1], 343.21 K	–	–	157.52
[1], 343.36 K	–	–	158.57
[1], 343.46 K	–	–	160.01
[1], 343.67 K	–	–	161.1
[1], 344.09 K	–	–	162.7
[1], 344.46 K	–	–	164.2
[1], 344.67 K	–	–	165.28
[1], 344.88 K	–	–	166.78
[1], 345.05 K	–	–	168.02
[1], 345.26 K	–	–	169.24
[1], 345.47 K	–	–	170.37
[1], 345.84 K	–	–	171.92
[1], 345.96 K	–	–	173.2
[2], 318.15 K	–	1.3486	–

CC(C)(C)O [2-methylpropan-2-ol]
318.15 K
Conditions	mass density [kg/m3]	refractive index
[1]	759.87	–
[2]	–	1.3741
